Among the data in ChEMBL document CHEMBL1132673, “Preparation and immunosuppressive activity of 32-(O)-acylated and 32-(O)-thioacylated analogues of ascomycin” (1999) are rIC50 values, retold here.

The nature of assay [1]: In vitro immunosuppressive activity measured in the interleukin-2 receptor gene assay (IL-2 RGA) in mitogen-stimulated human T-cell line; relative to FK506.
For the next assay, the species on record is Mus musculus. Nature of the assay: In vitro immunosuppressive activity measured in the mouse mixed lymphocyte reaction (MLR) expressed as relative inhibitory concentration (rIC50) relative to FK506 IC50 (0.3 nM). In kind it is functional.
Assay [2] has as its target Peptidyl-prolyl cis-trans isomerase FKBP1A (Homo sapiens) (UniProt P62942). The assay can be described thus: Immunosuppressive activity in FK506 binding protein 12 binding assay as inhibitory concentration (rIC50) relative to FK506 IC50 (1.2 nM).

SMILES strings stand for the structures.

Sequence of Peptidyl-prolyl cis-trans isomerase FKBP1A (Homo sapiens) (P62942 whole entry): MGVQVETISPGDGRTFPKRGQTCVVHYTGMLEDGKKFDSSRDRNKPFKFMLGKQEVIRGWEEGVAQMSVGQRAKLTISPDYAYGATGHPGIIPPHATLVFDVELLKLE

On to `CC[C@@H]1/C=C(\C)C[C@H](C)C[C@H](OC)[C@H]2O[C@@](O)(C(=O)C(=O)N3CCCC[C@H]3C(=O)O[C@H](/C(C)=C/[C@@H]3CC[C@@H](OC(=S)NC(=O)c4ccccc4)[C@H](OC)C3)[C@H](C)[C@@H](O)CC1=O)[C@H](C)C[C@@H]2OC`, for which the rIC50 was determined as 3.4 in assay [1], 11 in the assay filed under Mus musculus and 6.3 in assay [2].

As for `CC[C@@H]1/C=C(\C)C[C@H](C)C[C@H](OC)[C@H]2O[C@@](O)(C(=O)C(=O)N3CCCC[C@H]3C(=O)O[C@H](/C(C)=C/[C@@H]3CC[C@@H](OC(=S)NC(=O)CCC(=O)OC)[C@H](OC)C3)[C@H](C)[C@@H](O)CC1=O)[C@H](C)C[C@@H]2OC`, the values for the rIC50 (in assay [1]; in the assay listed under Mus musculus; in assay [2]) were 4.6, 19 and 1.6, respectively.

For the compound `C=CC[C@@H]1/C=C(\C)C[C@H](C)C[C@H](OC)[C@H]2O[C@@](O)(C(=O)C(=O)N3CCCC[C@H]3C(=O)O[C@H](/C(C)=C/[C@@H]3CC[C@@H](O)[C@H](OC)C3)[C@H](C)[C@@H](O)CC1=O)[C@H](C)C[C@@H]2OC` [TACROLIMUS ANHYDROUS], the rIC50 (in assay [1]; in the assay filed under Mus musculus; in assay [2]) was 1 throughout.

Regarding `CC[C@@H]1/C=C(\C)C[C@H](C)C[C@H](OC)[C@H]2O[C@@](O)(C(=O)C(=O)N3CCCC[C@H]3C(=O)O[C@H](/C(C)=C/[C@@H]3CC[C@@H](OC(=S)NC(=O)C[C@@H]4OC(C)(C)OC4=O)[C@H](OC)C3)[C@H](C)[C@@H](O)CC1=O)[C@H](C)C[C@@H]2OC`, the rIC50 turned out to be 12 in assay [1], 12 in the assay filed under Mus musculus and 0.9 in assay [2].

As for `CC[C@@H]1/C=C(\C)C[C@H](C)C[C@H](OC)[C@H]2O[C@@](O)(C(=O)C(=O)N3CCCC[C@H]3C(=O)O[C@H](/C(C)=C/[C@@H]3CC[C@@H](O)[C@H](OC)C3)[C@H](C)[C@@H](O)CC1=O)[C@H](C)C[C@@H]2OC` [ASCOMYCIN], the rIC50 in assay [1] amounted to 1.7; in the assay listed under Mus musculus it was 1.9; in assay [2] it was 0.9.

On to `CC[C@@H]1/C=C(\C)C[C@H](C)C[C@H](OC)[C@H]2O[C@@](O)(C(=O)C(=O)N3CCCC[C@H]3C(=O)O[C@H](/C(C)=C/[C@@H]3CC[C@@H](OC(=O)NC(=O)c4ccccc4)[C@H](OC)C3)[C@H](C)[C@@H](O)CC1=O)[C@H](C)C[C@@H]2OC`, for which the rIC50 worked out at 1.2 in assay [1], 2.9 in the assay listed under Mus musculus and 1.3 in assay [2].

Turning to `CC[C@@H]1/C=C(\C)C[C@H](C)C[C@H](OC)[C@H]2O[C@@](O)(C(=O)C(=O)N3CCCC[C@H]3C(=O)O[C@H](/C(C)=C/[C@@H]3CC[C@@H](OC(=S)N(C)C(=O)CCC(=O)OC)[C@H](OC)C3)[C@H](C)[C@@H](O)CC1=O)[C@H](C)C[C@@H]2OC`, the rIC50 in assay [1] was determined as 6.9; in the assay listed under Mus musculus, 36; in assay [2] it was 2.7.

As for `CC[C@@H]1/C=C(\C)C[C@H](C)C[C@H](OC)[C@H]2O[C@@](O)(C(=O)C(=O)N3CCCC[C@H]3C(=O)O[C@H](/C(C)=C/[C@@H]3CC[C@@H](OC(=O)NNc4ccccc4)[C@H](OC)C3)[C@H](C)[C@@H](O)CC1=O)[C@H](C)C[C@@H]2OC`, the rIC50 stood at 0.7 in assay [1], 2.5 in the assay filed under Mus musculus and 1.5 in assay [2].

As to `CC[C@@H]1/C=C(\C)C[C@H](C)C[C@H](OC)[C@H]2O[C@@](O)(C(=O)C(=O)N3CCCC[C@H]3C(=O)O[C@H](/C(C)=C/[C@@H]3CC[C@@H](OC(=S)NC(=O)c4ccco4)[C@H](OC)C3)[C@H](C)[C@@H](O)CC1=O)[C@H](C)C[C@@H]2OC`, the values for the rIC50 (in assay [1]; in the assay listed under Mus musculus; in assay [2]) were 3.5, 7.6 and 3.4, respectively.

Regarding `CC[C@@H]1/C=C(\C)C[C@H](C)C[C@H](OC)[C@H]2O[C@@](O)(C(=O)C(=O)N3CCCC[C@H]3C(=O)O[C@H](/C(C)=C/[C@@H]3CC[C@@H](OC(=S)NC(=O)c4ccc(C(=O)OC)cc4)[C@H](OC)C3)[C@H](C)[C@@H](O)CC1=O)[C@H](C)C[C@@H]2OC`, the values for the rIC50 (in assay [1]; in the assay filed under Mus musculus; in assay [2]) were 9, 8.4 and 7.3, respectively.

For `CC[C@@H]1/C=C(\C)C[C@H](C)C[C@H](OC)[C@H]2O[C@@](O)(C(=O)C(=O)N3CCCC[C@H]3C(=O)O[C@H](/C(C)=C/[C@@H]3CC[C@@H](OC(=S)NC(=O)c4ccc5ccccc5c4)[C@H](OC)C3)[C@H](C)[C@@H](O)CC1=O)[C@H](C)C[C@@H]2OC`, the rIC50 was 6.5 in assay [1], 15 in the assay listed under Mus musculus and 6.6 in assay [2].
